Experimental data taken from PMC12463027, “KRAS/ABHD17C/ALOX15B Axis Promotes Pancreatic Cancer Progression via Ferroptosis Evasion” (Advanced Science, 2025).

Key:
[1] = molecular target: T1, p-ABHD17C (Homo sapiens, UniProt Q6PCB6); test: SPR (Biacore); co-IP in cells shows disruption of the ABHD17C/ALOX15B interaction; format: binding
T1 sequence (Q6PCB6 1-329): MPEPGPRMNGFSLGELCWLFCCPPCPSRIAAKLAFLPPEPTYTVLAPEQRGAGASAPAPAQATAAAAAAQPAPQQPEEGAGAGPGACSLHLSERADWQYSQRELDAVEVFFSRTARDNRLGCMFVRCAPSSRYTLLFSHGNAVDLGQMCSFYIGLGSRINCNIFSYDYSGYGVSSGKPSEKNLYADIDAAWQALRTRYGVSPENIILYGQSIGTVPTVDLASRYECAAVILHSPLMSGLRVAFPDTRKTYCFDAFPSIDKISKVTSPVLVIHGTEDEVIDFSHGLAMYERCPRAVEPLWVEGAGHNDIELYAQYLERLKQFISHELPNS

[2] = molecular target: T2, ALOX15B immobilised for SPR (human, UniProt O15296 1-676); test: SPR; ALOX15B immobilised on a Series S Sensor Chip, DCAF10 as analyte; settings: both partners purified
T2 construct: ALOX15B, human
T2 sequence (looked up): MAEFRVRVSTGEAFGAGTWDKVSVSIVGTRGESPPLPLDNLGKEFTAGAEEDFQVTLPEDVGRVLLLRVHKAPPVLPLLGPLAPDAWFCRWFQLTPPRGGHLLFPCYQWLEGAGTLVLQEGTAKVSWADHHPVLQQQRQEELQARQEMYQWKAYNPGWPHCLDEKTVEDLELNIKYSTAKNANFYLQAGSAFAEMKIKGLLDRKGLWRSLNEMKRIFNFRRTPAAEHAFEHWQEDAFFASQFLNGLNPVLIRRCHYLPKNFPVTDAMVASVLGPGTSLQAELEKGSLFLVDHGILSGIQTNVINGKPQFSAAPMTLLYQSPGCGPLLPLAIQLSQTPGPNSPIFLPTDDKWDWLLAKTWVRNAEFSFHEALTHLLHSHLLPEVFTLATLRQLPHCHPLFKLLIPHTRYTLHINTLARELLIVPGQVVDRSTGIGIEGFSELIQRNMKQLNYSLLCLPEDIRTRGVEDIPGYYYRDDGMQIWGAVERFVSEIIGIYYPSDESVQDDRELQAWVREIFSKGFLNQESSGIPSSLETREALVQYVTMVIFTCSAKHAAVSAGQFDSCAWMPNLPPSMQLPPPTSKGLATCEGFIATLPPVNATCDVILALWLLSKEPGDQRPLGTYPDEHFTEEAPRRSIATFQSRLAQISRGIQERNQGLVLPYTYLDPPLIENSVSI

| Kd [2] [nM] | Molecule | Kd [1] [nM] |
| --- | --- | --- |
|  | CO[C@]1(CC[C@@H](C)CO[C@@H]2O[C@H](CO)[C@@H](O)[C@H](O)[C@H]2O)O[C@H]2C[C@H]3[C@@H]4CC=C5C[C@@H](O[C@@H]6O[C@H](CO)[C@@H](O[C@@H]7O[C@@H](C)[C@H](O)[C@@H](O)[C@H]7O)[C@H](O)[C@H]6O[C@@H]6O[C@@H](C)[C@H](O)[C@@H](O)[C@H]6O)CC[C@]5(C)[C@H]4CC[C@]3(C)[C@H]2[C@@H]1C [methyl protodioscin] | 4800 |
| 6.96 | recombinant DCAF10 (natural protein, UniProt Q5QP82 1-559, looked up, DCAF10, recombinant) MFPFGPHSPGGDGSAGAGAEEPTPHEGQAAATGPPSPLHPGADATHPPPPARSPRRPGAPSLSPAPRSGELGLPGAPESSTASAPGEPSPPSPPCRRPGPDCRAKSRGRHGLGAGLGGPGARLFGWLKERSLGRGLFVDPARDNFRTMTSLYGSIHPADSVYLSTRTHGAVFNLEYSPDGSVLTVACEQTEVLLFDPISSKHIKTLSEAHEDCVNNIRFLDNRLFATCSDDTTIALWDLRKLNTKVCTLHGHTSWVKNIEYDTNTRLLVTSGFDGNVIIWDTNRYTEDGCPHKKFFHTRFLMRMRLTPDCSKMLISTSSGYLLILHDLDLTKSLEVGSYPILRARRTTSSSDLTTSSSSSGPRVSGSPCHHSDSNSSEKHMSRASQREGVSPRNSLEVVTPEVLGESDHGNCITSLQLHPKGWATLLRCSSNSDDEECTCVYEFQEGAPVRPVSPRCSLRLTHYIEEANVGRGYIKELCFSPDGRMISSPHGYGIRLLGFDKQCSELVDCLPKEASPLRVIRSLYSHNDVVLTTKFSPTHCQIASGCLSGRVSLYQPKF |  |
